Data taken from patent US8912386B2, “Transgenic pig model of cystic fibrosis” (University of Iowa Research Foundation, priority 2007, dated 2014).
Read-outs that look alike come from different tables or passages of the source.

Columns and labels:
CFTR^+/+ epithelia = assay: Short-circuit current (Isc) response to increasing cAMP agonist concentrations, Ussing chambers, wild-type epithelia; type: cell-based, pig
Source text: (§1) These studies were done under conditions of maximal CFTR stimulation. Therefore, we also examined the response to increasing concentrations of forskolin and IBMX (at a fixed ratio of forskolin:IBMX of 1:10) (FIG. 33F,G). The EC50 for CFTR^+/+ epithelia was […]. In contrast, the EC50 for forskolin in CFTR^ΔF508/ΔF508 epithelia was 0.60±0.19
(§2) Because forskolin and IBMX might generate different cellular cAMP concentrations in CFTR^ΔF508/ΔF508 and CFTR^+/+ epithelia, we repeated the experiments with 8-CPT-cAMP, a membrane-permeable cAMP analog (FIG. 33H,I).
(§3) Epithelial tissues were excised from the nasal turbinate and septum, and from trachea through 2nd generation bronchi immediately after animals were euthanized. Tissues and cultured epithelia were studied in modified Ussing chambers. Epithelia were bathed on both surfaces with solution containing (mM): 135 NaCl, 2.4 K2HPO4, 0.6 KH2PO4, 1.2 CaCl2, 1.2 MgCl2, 10 dextrose, 5 HEPES, pH 7.4, at 37° C. and gassed with compressed air. Na-gluconate was substituted for NaCl in […] solutions. Transepithelial voltage (Vt) was maintained at 0 mV to measure short-circuit current (Isc). Transepithelial electrical conductance (Gt) was measured by intermittently clamping Vt to +5 and/or −5 mV.
(§4) A standard protocol was the following. 1) Measurements under basal conditions. 2) 100 μM apical amiloride to inhibit ENaC Na^+ channels. […]

[1] = system: CFTR^ΔF508/ΔF508 epithelia; assay: Short-circuit current (Isc) response to increasing cAMP agonist concentrations, Ussing chambers, ΔF508 epithelia; type: cell-based, pig
Source text: as §1, §2, §3, §4

nasal epithelia = assay: In vivo nasal transepithelial voltage (Vt) in newborn piglets; parameters: species or system pig; conditions: sequential perfusion, amiloride 100 μM, ATP 100 μM, GlyH-101 100 μM
Experimental: The transepithelial voltage (Vt) across the nasal epithelium was measured using previously described methods (Zabner et al., J. Clin. Invest. 97:1504, 1996; Standaert et al., Pediatr. Pulmonol. 37:385, 2004) under propofol anesthesia with the animal spontaneously breathing. The reference electrode was a small Ringer's solution-filled catheter inserted into the leg muscle (25 g needle). The exploring electrode was a 6 french foley catheter filled with Ringer's solution (148 mM NaCl, 2.4 mM KH2PO4, 0.4 mM K2PO4, 2.25 mM CaCl2, 1.2 mM MgCl2) inserted 4 cm into the nasal cavity, and the nasal mucosa was perfused at a rate of 5 ml/min using Ringer's solution to obtain baseline Vt. Subsequent perfusion solutions included: Ringer's solution containing 100 μM amiloride; Cl^−-free Ringer's solution containing gluconate substituted for CF plus amiloride; Cl^−-free Ringer's solution containing amiloride plus 10 μM isoproterenol; Cl^−-free Ringer's solution containing amiloride, isoproterenol, plus 100 μM ATP; Cl^−-free Ringer's solution containing amiloride, isoproterenol, ATP, plus 100 μM GlyH-101. Voltage was measured with a voltmeter connected to a strip chart recorder. Each solution was perfused for 3-5 minutes. Following completion of the measurements, the epithelium was disrupted by brushing and Vt measured again to determine the zero value of Vt.

[2] = system: excised trachea epithelia; assay: Electrophysiology of freshly excised tracheal epithelia in Ussing chambers; type: cell-based, pig; conditions: 100 μM apical
Source text: Values of transepithelial electrical conductance (Gt) were large, probably because of “edge damage” associated with clamping epithelia in Ussing chambers (Helman et al., Am. J. Physiol. Cell Physiol. 225(4):972-977, 1973) (compare with cultured epithelia in FIG. 31, 32).
as §3
A standard protocol was the following. 1) Measurements under basal conditions. 2) 100 μM apical amiloride to inhibit ENaC Na^+ channels. 3) 100 μM apical DIDS (4,4-diisothiocyano stilbene-2,2-disulfonic acid) to inhibit most anion channels other than CFTR. 4) 10 μM forskolin and 100 μM IBMX ([…]) to increase cellular levels of cAMP leading to phosphorylation and activation of CFTR. […]

Work on `Nc1ncnc2c1nc(Sc1ccc(Cl)cc1)n2[C@@H]1O[C@@H]2COP(=O)(O)O[C@H]2[C@H]1O` [8-CPT-cAMP] yielded an EC50 (CFTR^+/+ epithelia; wild-type epithelia, read-out: EC50 (change in Isc with increasing 8-CPT-cAMP)) of 8 ± 1.3 µM and an EC50 ([1]; read-out: EC50 (change in Isc with increasing 8-CPT-cAMP)) of 65.2 ± 17.3 µM.

With `Nc1ncnc2c1ncn2[C@@H]1O[C@H](COP(=O)(O)OP(=O)(O)OP(=O)(O)O)[C@@H](O)[C@H]1O` [ATP] the “Effect on nasal transepithelial voltage (Vt)” value (“Effect … (Vt)” for short) (nasal epithelia) was “further hyperpolarized Vt”.

For `N=C(N)NC(=O)c1nc(Cl)c(N)nc1N` [Amiloride, amiloride], the “Effect … (Vt)” value (nasal epithelia) was “reduced Vt in all genotypes”, the “Effect on transepithelial conductance Gt (ΔGtamiloride)” value ([2]; CFTR^ΔF508/ΔF508 vs CFTR^+/+) was “reduced Gt (ΔGtamiloride) to a similar extent” and the “Effect on Vt and Isc (ΔVtamiloride, ΔIscamiloride)” value ([2]; CFTR^ΔF508/ΔF508 vs wild-type) was “reduced Vt (ΔVtamiloride) and Isc (ΔIscamiloride) in CFTR^ΔF508/ΔF508 more than in wild-type epithelia”.

`O=C(CNc1ccc2ccccc2c1)N/N=C/c1cc(Br)c(O)c(Br)c1O` [GlyH-101] was tested, and the “Effect … (Vt)” value (nasal epithelia) was “depolarized Vt in controls, but not CFTR−/− piglets”.

Molecule `C=C[C@@]1(C)CC(=O)[C@]2(O)[C@@]3(C)[C@@H](O)CCC(C)(C)[C@@H]3[C@H](O)[C@H](OC(C)=O)[C@@]2(C)O1` [forskolin] has an EC50 (CFTR^+/+ epithelia; Sus scrofa, CFTR^+/+ epithelia, increasing forskolin and IBMX at fixed ratio forskolin:IBMX 1:10, read-out: EC50 for forskolin (change in Isc)) of 0.07 ± 0.01 µM and an EC50 ([1]; Sus scrofa, increasing forskolin and IBMX at fixed ratio forskolin:IBMX 1:10, read-out: EC50 for forskolin (change in Isc)) of 0.6 ± 0.19 µM.
